Test results reported in ChEMBL document CHEMBL3507680, “University of Dundee, Gates Library screen for HepG2 cell viability”.
Where “and” joins values, the source holds several entries; their conditions need not be identical. Identical values can stand only once.

Legend:
[1] = Human HepG2 cell viability assay in 384 well format; assay type: toxicity, cell-based; parameters: dose 125 nL, time 70.5 hour; cytotoxicity at 70.5 h: concentration not given beside the values; conditions: for Inhibition: hepg2, 70.5 h, 70.5 h; for cytotoxicity at 70.5 h: HepG2 cells, read-out: Inhibition
[2] = Human HepG2 cell viability dose-response assay; assay type: toxicity, cell-based

SMILES | cytotoxicity at 70.5 h [1] [%] | also measured
CC1=Nc2c(c(=O)[nH]n2C2CCCC2)C(c2ccc(C(=O)O)cc2)S1 (stereo unspecified) | – | Inhibition [1]: -12.72% and -17.34%
CC1=Nc2c(c(=O)[nH]n2C2CCCC2)C(c2cccnc2)S1 (stereo unspecified) | – | Inhibition [1]: -2.319% and 7.616%
CCOC(=O)CC(c1cccc(OC)c1OC)c1c(C)[nH][nH]c1=O (stereo unspecified) | – | Inhibition [1]: -11.36% and -3.674%
CCS(=O)(=O)N1CCc2ccc(NC(=O)Nc3ccc(F)cc3F)cc21 | 61 | BOTTOM [2]: -8.818 and -13.27; HILLSLOPE [2]: 1.034 and 0.9987; TOP [2]: 101.1 and 100; pXC50 [2]: 4.643 and 4.737
CCC(=O)Nc1ccc2c(c1)CN(C(=O)c1ccco1)CC2 | 66.1 | BOTTOM [2]: 0; HILLSLOPE [2]: 0; TOP [2]: 0; pXC50 [2]: < 4.53
CCN(CC)c1nc(Nc2cccc(C(C)O)c2)nc2ccccc12 (stereo unspecified) | 65 | BOTTOM [2]: -6.556 and -9.604; HILLSLOPE [2]: 3.369 and 3.239; TOP [2]: 95.36 and 94.66; pXC50 [2]: 5.073 and 5.085
CCCNc1cc(-c2c[nH]nc2C2CCN(C(=O)C3CCC3)C2)ccn1 (stereo unspecified) | 96.6 | HILLSLOPE [2]: 3.782 and 3.402; TOP [2]: 97.22 and 96.9; pXC50 [2]: 6.441 and 6.523
COc1cc(OC)c(C2Nc3cc(Cl)ccc3C3=NCCN32)cc1OC (stereo unspecified) | 73.2 | HILLSLOPE [2]: 0.8757 and 0.9571; TOP [2]: 114.1 and 108.1; pXC50 [2]: 4.986 and 5.042
CC(C)(C)c1cn2c(n1)C(CNCc1cnn3ccccc13)CCC2 (stereo unspecified) | 71.2 | BOTTOM [2]: -11.51 and -11.88; HILLSLOPE [2]: 1.1 and 1.076; TOP [2]: 100; pXC50 [2]: 5.268 and 5.282
CC(C)(C)c1cn2c(n1)C(CNCc1ccccn1)CCC2 (stereo unspecified) | 70.8 | BOTTOM [2]: -8.279 and -9.133; HILLSLOPE [2]: 1.336 and 1.545; TOP [2]: 100 and 90.93; pXC50 [2]: 5.194 and 5.33
Cc1nc(CN2CCCC(N(C)Cc3cnn(C)c3)C2)no1 (stereo unspecified) | 89.5 | BOTTOM [2]: 0; HILLSLOPE [2]: 0; TOP [2]: 0; pXC50 [2]: < 4.53
O=C(Cn1cnc2ccccc2c1=O)Nc1cc(C2CC2)n[nH]1 | 107 | BOTTOM [2]: -7.289 and -9.306; HILLSLOPE [2]: 2.407 and 2.226; TOP [2]: 101 and 100.4; pXC50 [2]: 6.137 and 6.176
CCCn1ncc(-c2ccnc(NC3CC(C)(C)NC(C)(C)C3)n2)c1C | 80.1 | BOTTOM [2]: 0; HILLSLOPE [2]: 0; TOP [2]: 0; pXC50 [2]: < 4.53
COCc1cc(N(C)Cc2c(C)nn(C)c2C)n2nccc2n1 | 64.9 | BOTTOM [2]: 0; HILLSLOPE [2]: 0; TOP [2]: 0; pXC50 [2]: < 4.53
O=C(NCC(F)(F)F)C1CSCN1S(=O)(=O)c1ccccc1F (stereo unspecified) | 26 | –
CCN1CCC(CNC(=O)C2(c3ccc(F)cc3)CC2)C1 (stereo unspecified) | 52 | –
CCCc1n[nH]c(C2CN(CCCS(=O)(=O)N(C)C)CCO2)n1 (stereo unspecified) | -4.5 | –
Cc1cnn(CC2CN(Cc3nccn3CC(F)(F)F)CCO2)c1 (stereo unspecified) | 26.3 | –
N#CC1CCN(C(=O)NCCc2ccc(Cl)s2)CC1 | -3.5 | –
O=C(Cc1csc(-c2ccco2)n1)N1CCN(c2ccccc2O)CC1 | -4.66 | –
c1ccc(Cc2noc(CN(Cc3cccs3)CC3CCCO3)n2)cc1 (stereo unspecified) | -4.54 | –
CC(=O)N1CCN(C(=O)NCc2ccc(Cl)s2)CC1 | 20.2 | –
Cc1ccc(S(=O)(=O)N2CSCC2C(=O)NCC(F)(F)F)cc1C (stereo unspecified) | -3.59 | –
N#Cc1ccc(S(=O)(=O)N2CSCC2C(=O)NCC(F)(F)F)cc1 (stereo unspecified) | -5.51 | –

SMILES | cytotoxicity at 70.5 h [1] [%] | also measured
O=C(Cc1csc(-c2ccco2)n1)N1CCN(c2nccs2)CC1 | -5.89 | –
Cc1ccoc1C(=O)NC1CCN(Cc2ccccc2F)CC1 | 27.3 | –
Cc1ncsc1C(=O)NC1CCN(Cc2cccc3c2OCCO3)CC1 | -0.651 | –
Cc1ccoc1C(=O)NC1CCN(Cc2ccccc2C#N)CC1 | -1.98 | –
Cc1ccc(NC2CCN(C(=O)c3ccc(F)cc3Cl)CC2)nn1 | -3.69 | –
O=C(O)c1cc(S(=O)(=O)Nc2ccccc2)cc2c1OCCO2 | 4.5 | –
Cc1ccc(NS(=O)(=O)c2cc3c(c(C(=O)O)c2)OCCO3)cc1F | -3.64 | –
CCc1ccc(NS(=O)(=O)c2cc3c(c(C(=O)O)c2)OCCO3)cc1 | -0.0386 | –
CN(Cc1ccsc1)C(=O)Nc1ccc(S(C)(=O)=O)nc1 | 2.4 | –
COC(=O)c1ccc(S(=O)(=O)NCc2cccnc2N(C)C)cc1 | 29.6 | –
CCCOc1ccc(CNC(=O)N2CCC(C(N)=O)C2)cc1 (stereo unspecified) | -0.602 | –
CC(C)N(CC(N)=O)Cc1csc(COc2ccc(F)cc2)n1 | 43.4 | –
CS(=O)(=O)c1ccc(CNC(=O)N2CCC(C(N)=O)C2)cc1 (stereo unspecified) | 30 | –
CCOc1ccnc(N2CCN(C(=O)c3cccnc3O)CC2)n1 | 1.67 | –
CCCc1nc(CN2CCCC2Cn2cncn2)cs1 (stereo unspecified) | 17.1 | –
COc1cc(C)nc(N2CCN(C(=O)CCn3cc(C)cn3)CC2)n1 | -0.584 | –
CC(=O)Nc1nc(CN2CCCC2c2cnn(C)c2)cs1 (stereo unspecified) | 31.4 | –
CCn1ncc2c1CCCC2NCc1cc(Cl)c(OC)c(OC)c1 (stereo unspecified) | 27.8 | –
CCn1ncc2c1CCCC2NCc1ccc(OC)c(C)c1 (stereo unspecified) | 33.6 | –
Cc1nc(C)n(C2CCCN(C(=O)c3sccc3C3CC3)C2)n1 (stereo unspecified) | 21.5 | –
Cc1nn(C)c(N2CCOCC2)c1CNC1CCOc2ccccc21 (stereo unspecified) | -3.07 | –
COc1c(C)cnc(CN2CCOC(Cn3nc(C)nc3C)C2)c1C (stereo unspecified) | -1.22 | –
c1coc(-c2noc(CN3CCCC(Cn4cncn4)C3)n2)c1 (stereo unspecified) | 26 | –
CCn1cc(CN2CCCN(C(=O)c3sccc3C#N)CC2)cn1 | 37.5 | –

SMILES | cytotoxicity at 70.5 h [1] [%] | also measured
CCn1ccnc1CN1CCCN(C(=O)c2sccc2C#N)CC1 | 1.96 | –
CCc1noc(C)c1C(=O)N1CCCC1c1c(C)nn(C)c1OC (stereo unspecified) | 18 | –
Cc1nn(C)c(C)c1C1CCCN1Cc1cccc(C(=O)N(C)C)c1 (stereo unspecified) | 37.6 | –
Cc1nc(CN2CCOC(c3nc(C(C)C)n[nH]3)C2)oc1C (stereo unspecified) | 6.2 | –
CCc1nc(CN(C(C)=O)C2CCN(CCc3cnn(C)c3)C2)no1 (stereo unspecified) | 21.3 | –
CCN1CCN(C2CCN(Cc3noc(C)n3)CC2)C1=O | 28.4 | –
Cc1ccc(NC(=O)NCCCc2n[nH]c(N)c2C#N)cc1 | -3.1 | –
COCCOc1ccc(NC(=O)C2CCC2)cn1 | -7.54 | –
CC(NC(=O)NCCCn1ccnc1)c1ccc2c(c1)CCC(=O)N2 (stereo unspecified) | 43.4 | –
Cc1noc(NC(=O)c2ccc(C)c(F)c2)n1 | 41 | –
CC(NC(=O)NCCCn1cccn1)c1ccc2c(c1)NC(=O)CO2 (stereo unspecified) | 46.4 | –
N#Cc1cccc(S(=O)(=O)NC2CCN(Cc3ccccc3)C2=O)c1 (stereo unspecified) | -2.45 | –
COc1cc(C(=O)Nc2c(C)noc2C)ccc1C | 1.7 | –
CCS(=O)(=O)N(C)C(=O)c1cc(C)n(-c2cccc(OC)c2)c1C | 27.9 | –
Cc1cnn(CC2CN(c3cnc4ccccc4n3)CCO2)c1 (stereo unspecified) | 48.4 | –
Cc1cc(CN2CCN(CC(O)C(C)(C)C)CC2)no1 (stereo unspecified) | 9.4 | –
CC(C)c1n[nH]c(C(=O)Nc2ccnn2C(C)C)c1Br | 45.8 | –
Cc1cc(CN2CCN(CC(O)c3ccccc3)CC2)no1 (stereo unspecified) | 0.624 | –
COc1cccc2cc(CNC(=O)N3CCCC(O)C3)oc12 (stereo unspecified) | 46.8 | –
CNS(=O)(=O)CCCN1CCCC1c1noc(C2CC2)n1 (stereo unspecified) | -6.19 | –
Cc1nc(CN2CCCC(NCCOc3ccccc3)C2)no1 (stereo unspecified) | -5.84 | –
Cc1cc(C)n(C2CCCN(C(=O)Cc3csc(C)n3)C2)n1 (stereo unspecified) | 12.8 | –
Cc1nc(CN2CCCC(NCCOCC(F)(F)F)C2)no1 (stereo unspecified) | 24.6 | –
COc1ccccc1CC(=O)N1CCCC(n2nc(C)cc2C)C1 (stereo unspecified) | 2.04 | –

SMILES | cytotoxicity at 70.5 h [1] [%] | also measured
CN(Cc1ncc(C(C)(C)C)o1)C1CCCN(c2cccnn2)C1 (stereo unspecified) | -11.9 | –
Cc1nccn1CC1CCCN1S(=O)(=O)Cc1ccon1 (stereo unspecified) | 4.51 | –
Cn1cc(C2CCCN2C(=O)Cc2n[nH]c3ccccc23)cn1 (stereo unspecified) | 40.1 | –
CCC(CC)C(CNC(=O)Nc1cc(C)nn1C)N1CCOCC1 (stereo unspecified) | 36.9 | –
Cc1cc(CN2CCN(C(=O)NCc3ccc(C)s3)CC2)no1 | -27.6 | –
CN1CCN(C(=O)c2cnc3c(cnn3C3CCCC3)c2)CC1 | -10 | –
CCN(CC1CCCO1)C(=O)Nc1cc(OC)c(OC)cc1C (stereo unspecified) | -14.3 | –
CC(C)C(=O)N1CCN(C(=O)CCc2nnc(-c3ccccc3)o2)CC1 | -21.2 | –
CCC(O)CN1CCN(C(=O)c2cccn2Cc2cccs2)CC1 (stereo unspecified) | -17.9 | –
Cc1nc(C2CCCN(C(=O)c3cc(Cl)c[nH]3)C2)no1 (stereo unspecified) | -15.5 | –
Cc1cc(C(=O)N2CCCC(c3noc(C)n3)C2)[nH]n1 (stereo unspecified) | 34.4 | –
O=C(CCCc1nnc(-c2ccccc2)o1)N1CCN(CCO)CC1 | -32.4 | –
CCN(CC1CCCO1)C(=O)Nc1cc(C(=O)OC)ccc1F (stereo unspecified) | -22.1 | –
O=C(c1n[nH]c2ccccc12)N1CCCC1c1noc(C2CC2)n1 (stereo unspecified) | -17.4 | –
CCOC1CCCN(C(=O)c2cnc3c(cnn3C3CCCC3)c2)C1 (stereo unspecified) | -18 | –
CC(C)(C)c1cnc(CN2CCC(c3ccnn3CCO)CC2)o1 | -11.1 | –
CCn1nnc2cc(C(=O)N3CCCC3Cn3cc(C)cn3)ccc21 (stereo unspecified) | -19.4 | –
Cc1cnn(CC2CCCN2Cc2nc3ccccc3n2C)c1 (stereo unspecified) | -10.6 | –
Cl.Clc1cccc(N[C@H]2CCCN[C@H]2Cc2ccccc2)c1 | 104 | BOTTOM [2]: 3.022 and 5.09; HILLSLOPE [2]: 10.78 and 7.141; TOP [2]: 102.1 and 102.6; pXC50 [2]: 5.327 and 5.334
CN1CCC(c2n[nH]c3ncccc23)C1.O=CO (stereo unspecified) | 81.6 | HILLSLOPE [2]: 2.128 and 2.318; TOP [2]: 100; pXC50 [2]: 4.946 and 4.92
C/N=C1\c2cc3cc(OC)ccc3n2CCN1Cc1ccccc1.O=C(O)C(F)(F)F | 68.5 | BOTTOM [2]: -10.9 and -4.699; HILLSLOPE [2]: 1.421 and 1.435; TOP [2]: 100; pXC50 [2]: 5.16 and 5.151
